This assay deals with T1, MtEno (Mycobacterium tuberculosis, UniProt P9WNL1).
T1 construct: gene eno
T1 sequence (P9WNL1 whole entry): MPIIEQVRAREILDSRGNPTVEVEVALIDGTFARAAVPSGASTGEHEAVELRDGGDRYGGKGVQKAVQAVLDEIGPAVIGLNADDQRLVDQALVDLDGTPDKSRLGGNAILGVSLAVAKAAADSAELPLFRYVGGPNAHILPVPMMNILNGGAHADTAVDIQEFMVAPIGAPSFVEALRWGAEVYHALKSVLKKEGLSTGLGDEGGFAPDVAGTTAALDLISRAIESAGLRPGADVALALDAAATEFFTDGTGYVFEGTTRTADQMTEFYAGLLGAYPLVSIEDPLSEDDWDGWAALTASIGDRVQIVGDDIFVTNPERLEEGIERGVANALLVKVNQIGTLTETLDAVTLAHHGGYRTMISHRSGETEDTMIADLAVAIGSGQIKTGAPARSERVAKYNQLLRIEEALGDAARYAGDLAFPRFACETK

As to `O=C(O)[C@@H](CO)OP(=O)(O)O` [2PG, 2-phosphoglycerate], the X-ray crystal structure result is reported as “Of the two structures of MtEno-2PG, one harbored the 2PG-canonical pose”.

The record behind these values is paper PMC10619443, “Structural snapshots of Mycobacterium tuberculosis enolase reveal dual mode of 2PG binding and its implication in enzyme catalysis” (IUCrJ, 2023).
